Laboratory results from patent US20220387417A1, “Pharmaceutical Combination and Use Thereof” (CSTONE PHARMACEUTICALS (SUZHOU) CO., LTD., priority 2019, published 2022).
Where “and” joins values, the source holds several entries; their conditions need not be identical. Identical values can stand only once. Counter-ions that a name gives are not always drawn.

How the values were obtained:
[1] = Body weight of B-hPD-1 mice bearing MC38-hPD-L1 tumors, Embodiment 1 (antibody 1.14.4 / Lenvatinib mesylate); type: in vivo, Mus musculus
Description: (§1) MC38-hPD-L1 tumor cells were resuspended in 1×PBS to a concentration of 5×10^6 cells/mL. Each of the B-hPD-1 humanized mice was subcutaneously inoculated at the right lateral thorax region with 0.1 mL of the cell suspension, and a total of 85 mice were inoculated. On the 7th day after inoculation, when the average tumor volume reached about 103 mm^3, the mice with moderate tumor volume were selected and randomly divided into 8 groups according to tumor volume, with 7 mice in each group, and the treatment was initiated on the same day.
(§2) Animals were weighed 2-3 times a week before tumor inoculation, during animal grouping and the treatment, and before the euthanasia.
(§3) The original data measured and observed must be recorded. The original data was analyzed and the results were expressed by mean and standard error (Mean±SEM). The data of body weight, tumor volume and tumor weight was statistically analyzed using independent-samples t-test. All data were analyzed using SPSS, P<0.05 is considered to be statistically significant. The results of the analysis were considered both statistical significance and biological significance.

[2] = system: subcutaneous MC38-hPD-L1 transplanted tumor; assay: Antibody 2E5 monotherapy or in combination with Lenvatinib mesylate on B-hPD-1 humanized mouse MC38-hPD-L1 colon cancer model: tumor volume, tumor weight, TGI, synergy score; type: in vivo
Description: (§4) Synergy score was calculated using the following formula described in Clarke R. Issues in experimental design and endpoint analysis in the study of experimental cytotoxic agents in vivo in breast cancer and other models[J]. Breast Cancer Research & Treatment, 1997, 46(2-3):255-278, which is incorporated by reference in its entirety:
(§5) Synergy score=((A/C)×(B/C))/(AB/C);
(§6) where A is RTV value of drug A; B is RTV value of drug B; C is RTV value of vehicle control; AB is RTV value of combination treatment with A and B respectively. • Synergy score>1 represents synergistic; • Synergy score=1 represents additive; • Synergy score<1 represents antagonistic.
(§7) where V0 and Vt are the average tumor volume at the start of treatment (day 0) and the average tumor volume on a certain time point (day t).
(§8) Mouse colon cancer cells MC38 were purchased from Shun Ran (Shanghai) Biotechnology Co., Ltd., and the cells were cultured in a 37° C., 5% CO2 incubator supplemented with Dulbecco's Modified Eagle's medium containing 10% inactivated fetal bovine serum. MC38 cells were genetically modified to overexpress human PD-L1 and knock out murine PD-L1, the modified cells were named as MC38-hPD-L1 cells.
as §1, with “of 5×10^5 cells per 0.1 mL.” for “of 5×10^6 cells/mL.”, “cell suspension. When” for “cell suspension, and a total of 85 mice were inoculated. On the 7th day after inoculation, when”, “about 77” for “about 103”, “into 6” for “into 8”, “with 10” for “with 7”
Tumor volume was measured 2-3 times a week in two dimensions using a caliper, and the volume was expressed in mm^3 using the formula: V=0.5 a×b^2 where a and b were the long and short diameters of the tumor, respectively.
(§9) At the termination of the experiment, the animals were photographed to record the tumor bearing state after euthanasia, and the tumors of the mice were weighed and photographed.
TGITV(%)=[1−(Ti−T0)/(Vi−V0)]×100%. […]
At the termination of the experiment, the animals were euthanized, the tumors were separated and weighed, and the difference of tumor weight between each group was calculated. Tumor weight inhibition (TGITW) was calculated by the formula: […]
as §3, with “significant.” for “significant. The results of the analysis were considered both statistical significance and biological significance.”

[3] = system: subcutaneous MC38-hPD-L1 transplanted tumor; assay: Antibody 1.14.4 monotherapy or in combination with Lenvatinib mesylate on B-hPD-1 humanized mouse MC38-hPD-L1 colon cancer model: tumor volume, tumor weight, TGI, synergy score; type: in vivo
Description: as §8, §1
Tumor volume was measured three times a week in two dimensions using a caliper, and the volume was expressed in mm^3 using the formula: V=0.5 a×b^2 where a and b were the long and short diameters of the tumor, respectively.
as §9
TGITV(%)=[1−(Ti−T0)/(Vi−V0)]×100%.
Ti: tumor volume of the treatment group at day i following treatment; T0: tumor volume of the treatment group at day 0 following treatment; Vi: tumor volume of the control group at day i following treatment; V0: tumor volume of the control group at day 0 following treatment.
At the termination of the experiment, the animals were euthanized, the tumors were separated and weighed, and the difference of tumor weight between each group was calculated. Tumor weight inhibition (TGITW) was calculated by the formula:
TGITW (%)=(WC−WT)/[…]×100%; where We means tumor weight of control group, WT means tumor weight of treatment group.
as §3, §4, §5, §6, §7

[4] = Body weight of B-hPD-1 humanized mice bearing MC38-hPD-L1 tumors, Embodiment 2 (antibody 2E5 / Lenvatinib mesylate); type: in vivo, Mus musculus
Description: as §1, with “of 5×10^5 cells per 0.1 mL.” for “of 5×10^6 cells/mL.”, “cell suspension. When” for “cell suspension, and a total of 85 mice were inoculated. On the 7th day after inoculation, when”, “about 77” for “about 103”, “into 6” for “into 8”, “with 10” for “with 7”
as §2
as §3, with “significant.” for “significant. The results of the analysis were considered both statistical significance and biological significance.”

[5] = 17th day after the start of treatment, Antibody 2E5 1 mg/kg i.p., Lenvatinib mesylate 1 mg/kg p.o. QD (G2, G4, G5)

COc1cc2nccc(Oc3ccc(NC(=O)NC4CC4)c(Cl)c3)c2cc1C(N)=O [Lenvatinib mesylate, reference compound]
Weight (g)/Mean ± SEM Day 16 ([1]; 16th day after the start of treatment, Antibody 1.14.4 3 mg/kg, Lenvatinib mesylate 1 mg/kg): 22.5 ± 0.2 g
Weight (g)/Mean ± SEM Day 0 ([1]; Day 0 = day of the start of treatment, Antibody 1.14.4 3 mg/kg, Lenvatinib mesylate 1 mg/kg): 19.9 ± 0.3 g
Weight (g) Changes ([1]; Day 16 vs Day 0, Antibody 1.14.4 3 mg/kg, Lenvatinib mesylate 1 mg/kg): +2.6 g
Days after the start of treatment/weight (g), group Mean, day 0 ([1]; group mean (7 mice), day 0, Antibody 1.14.4 3 mg/kg Q2D i.p., Lenvatinib mesylate 1 mg/kg QD p.o.): 19.9 g
Days after the start of treatment/weight (g), group Mean, day 3 ([1]; group mean (7 mice), day 3, Antibody 1.14.4 3 mg/kg Q2D i.p., Lenvatinib mesylate 1 mg/kg QD p.o.): 19.5 g
Days after the start of treatment/weight (g), group Mean, day 6 ([1]; group mean (7 mice), day 6, Antibody 1.14.4 3 mg/kg Q2D i.p., Lenvatinib mesylate 1 mg/kg QD p.o.): 20.3 g
Days after the start of treatment/weight (g), group Mean, day 8 ([1]; group mean (7 mice), day 8, Antibody 1.14.4 3 mg/kg Q2D i.p., Lenvatinib mesylate 1 mg/kg QD p.o.): 20.5 g
Days after the start of treatment/weight (g), group Mean, day 10 ([1]; group mean (7 mice), day 10, Antibody 1.14.4 3 mg/kg Q2D i.p., Lenvatinib mesylate 1 mg/kg QD p.o.): 20.9 g
Days after the start of treatment/weight (g), group Mean, day 12 ([1]; group mean (7 mice), day 12, Antibody 1.14.4 3 mg/kg Q2D i.p., Lenvatinib mesylate 1 mg/kg QD p.o.): 21.2 g
Days after the start of treatment/weight (g), group Mean, day 14 ([1]; group mean (7 mice), day 14, Antibody 1.14.4 3 mg/kg Q2D i.p., Lenvatinib mesylate 1 mg/kg QD p.o.): 22.3 g
Days after the start of treatment/weight (g), group Mean, day 16 ([1]; group mean (7 mice), day 16, Antibody 1.14.4 3 mg/kg Q2D i.p., Lenvatinib mesylate 1 mg/kg QD p.o.): 22.5 g
Days after the start of treatment/weight (g), group Mean, day 19 ([1]; group mean (7 mice), day 19, Antibody 1.14.4 3 mg/kg Q2D i.p., Lenvatinib mesylate 1 mg/kg QD p.o.): 21.9 g
Days after the start of treatment/weight (g), group Mean, day 20 ([1]; group mean (7 mice), day 20, Antibody 1.14.4 3 mg/kg Q2D i.p., Lenvatinib mesylate 1 mg/kg QD p.o.): 22.7 g
Days after the start of treatment/weight (g), individual animal, day 0 ([1]; individual mouse, day 0, Antibody 1.14.4 3 mg/kg Q2D i.p., Lenvatinib mesylate 1 mg/kg QD p.o.): 18.6 g and 19.5 g and 19.4 g and 20.0 g and 20.2 g and 20.8 g (2×)
Days after the start of treatment/weight (g), individual animal, day 3 ([1]; individual mouse, day 3, Antibody 1.14.4 3 mg/kg Q2D i.p., Lenvatinib mesylate 1 mg/kg QD p.o.): 18.8 g and 19.2 g and 18.9 g and 19.7 g and 19.3 g and 20.3 g and 20.2 g
Days after the start of treatment/weight (g), individual animal, day 6 ([1]; individual mouse, day 6, Antibody 1.14.4 3 mg/kg Q2D i.p., Lenvatinib mesylate 1 mg/kg QD p.o.): 19.4 g and 20.1 g and 19.8 g and 20.6 g and 20.3 g and 21.2 g and 20.8 g
Days after the start of treatment/weight (g), individual animal, day 8 ([1]; individual mouse, day 8, Antibody 1.14.4 3 mg/kg Q2D i.p., Lenvatinib mesylate 1 mg/kg QD p.o.): 19.5 g and 20.6 g and 20.4 g and 20.7 g and 20.3 g and 21.0 g (2×)
Days after the start of treatment/weight (g), individual animal, day 10 ([1]; individual mouse, day 10, Antibody 1.14.4 3 mg/kg Q2D i.p., Lenvatinib mesylate 1 mg/kg QD p.o.): 20.2 g and 21.1 g and 20.1 g and 21.5 g and 20.4 g and 21.7 g and 21.4 g
Days after the start of treatment/weight (g), individual animal, day 12 ([1]; individual mouse, day 12, Antibody 1.14.4 3 mg/kg Q2D i.p., Lenvatinib mesylate 1 mg/kg QD p.o.): 20.1 g and 21.1 g (2×) and 21.4 g and 20.7 g and 22.2 g and 21.6 g
Days after the start of treatment/weight (g), individual animal, day 14 ([1]; individual mouse, day 14, Antibody 1.14.4 3 mg/kg Q2D i.p., Lenvatinib mesylate 1 mg/kg QD p.o.): 20.9 g and 22.9 g and 22.0 g (2×) and 22.2 g and 23.0 g (2×)
Days after the start of treatment/weight (g), individual animal, day 16 ([1]; individual mouse, day 16, Antibody 1.14.4 3 mg/kg Q2D i.p., Lenvatinib mesylate 1 mg/kg QD p.o.): 21.6 g and 22.8 g (2×) and 22.6 g and 22.5 g and 21.9 g and 23.0 g
Days after the start of treatment/weight (g), individual animal, day 19 ([1]; individual mouse, day 19, Antibody 1.14.4 3 mg/kg Q2D i.p., Lenvatinib mesylate 1 mg/kg QD p.o.): 21.2 g and 23.0 g (2×) and 21.9 g and 21.4 g and 22.6 g and 20.3 g
Days after the start of treatment/weight (g), individual animal, day 20 ([1]; individual mouse, day 20, Antibody 1.14.4 3 mg/kg Q2D i.p., Lenvatinib mesylate 1 mg/kg QD p.o.): 21.5 g and 23.2 g (3×) and 22.6 g and 22.1 g and 22.9 g
Tumor volume (mm^3)/Mean ± SEM Day 17 [2, 5]: 891 ± 149 mm^3
Tumor weight (g) Mean ± SEM ([2]; Day 17, Antibody 2E5 1 mg/kg, Lenvatinib mesylate 1 mg/kg (G2, G4, G5)): 0.767 ± 0.103 g
Tumor growth inhibition (%) ([2]; by tumor volume, Day 17, vs hIgG4 control, Antibody 2E5 1 mg/kg, Lenvatinib mesylate 1 mg/kg (G2, G4, G5)): 68.2%
Tumor growth inhibition (%) ([2]; tumor weight analysis (Table 21), Day 17, vs IgG4 control, Antibody 2E5 1 mg/kg, Lenvatinib mesylate 1 mg/kg (G2, G4, G5)): 63.2%
Tumor volume (mm^3)/Mean ± SEM Day 16 ([3]; 16th day after the start of treatment, antibody 1.14.4 3 mg/kg Q2D i.p., Lenvatinib mesylate 1 mg/kg QD p.o.): 1333 ± 261 mm^3
Tumor volume (mm^3)/Mean ± SEM Day 0 ([3]; Day 0, Antibody 1.14.4 3 mg/kg, Lenvatinib mesylate 1 mg/kg, Table 11): 103 ± 8 mm^3
Tumor volume (mm^3)/Mean ± SEM Day 0 ([3]; Day 0 = day of the start of treatment, antibody 1.14.4 3 mg/kg, Lenvatinib mesylate 1 mg/kg, Table 10): 103 ± 8 mm^3
Tumor volume (mm^3)/Mean ± SEM Day 20 ([3]; Day 20, Antibody 1.14.4 3 mg/kg Q2D i.p., Lenvatinib mesylate 1 mg/kg QD p.o.): 1726 ± 374 mm^3
Tumor weight (g) Mean ± SEM ([3]; Day 20, antibody 1.14.4 3 mg/kg, Lenvatinib mesylate 1 mg/kg, Table 13): 1.244 ± 0.292 g
Tumor weight (g), group Mean ([3]; group mean (7 mice), Day 20, Antibody 1.14.4 3 mg/kg, Lenvatinib mesylate 1 mg/kg): 1.244 g
Tumor weight (g), individual animal ([3]; individual mouse, 20th day after the start of treatment, Antibody 1.14.4 3 mg/kg Q2D i.p., Lenvatinib mesylate 1 mg/kg QD p.o.): 1.039 g and 2.048 g and 2.485 g and 0.652 g and 0.408 g and 1.362 g and 0.715 g
TGITV (%) ([3]; tumor growth inhibition by tumor volume, Day 16, vs hIgG4 control, antibody 1.14.4 3 mg/kg, Lenvatinib mesylate 1 mg/kg): 38.8%
TGITW ([3]; tumor weight inhibition vs hIgG4 control, Day 20, Antibody 1.14.4 3 mg/kg, Lenvatinib mesylate 1 mg/kg): 21.3%
Weight (g)/Mean ± SEM Day 17 [4, 5]: 28.0 ± 0.8 g
Weight (g)/Mean ± SEM Day 0 ([4]; Day 0, Antibody 2E5 1 mg/kg i.p., Lenvatinib mesylate 1 mg/kg p.o. QD (G2, G4, G5)): 24.9 ± 0.8 g
Weight (g) Changes ([4]; Day 17 vs Day 0, Antibody 2E5 1 mg/kg, Lenvatinib mesylate 1 mg/kg (G2, G4, G5)): +3.1 g
